Experiments:
[1] = system: HEK293 cells
[2] = spontaneous isomerisation at room temperature monitored by HPLC; format: physicochemical
Description: The main difference between the spectra is the hypsochromic shift of the Compound 2 peak maxima of about 3 nm.

| SMILES | oxidative metabolism [1] | elongation to a 22 carbon fatty acid ([1]; compared with AA or EPA) | cellular uptake and assimilation into complex lipids ([1]; fractionation of organic extracts on aminopropyl columns) | stability (geometrical isomerisation) [2] |
| --- | --- | --- | --- | --- |
| CC/C=C\C/C=C\C/C=C/C=C/C=C/C=C/CCCC(=O)O [5E,7E,9E,11E,14Z,17Z-eicosahexaenoic acid] | appears to be oxidized through a monooxygenation system in HEK293 cells, and the products released to the medium | appeared not to be elongated efficiently to a 22 carbon fatty acid | taken up by the cells and assimilated into complex lipids | – |
| CC/C=C\C/C=C\C\C=C/C=C/C=C/C=C/CCCC(=O)O [Compound 1, 5E,7E,9E,11Z,14Z,17Z-eicosahexaenoic acid] | – | – | – | spontaneous room temperature conversion of Compound 1 to Compound 2 |

— patent US7091369B2, “Synthesis of polyconjugated fatty acids” (Board of Trustees Operating Michigan State University, priority 2003, dated 2006)
